Key:
MCF7 [1] = experiment: Growth inhibition of human MCF7 cells at 20 uM after 72 hrs by MTT assay; type: functional; settings: MCF7, 72 h, read-out: GI
HeLa [2] = experiment: Antiproliferative effect against human HeLa cells after 69 hrs by MTT assay; type: functional, cell-based
MCF7 [3] = experiment: Antiproliferative effect against human MCF7 cells after 72 hrs by MTT assay; type: functional, cell-based; settings: MCF7, 72 h
HL-60 [4] = experiment: Growth inhibition of human HL60 cells at 20 uM after 69 hrs; type: functional; settings: HL-60, 69 h, read-out: GI
HeLa [5] = experiment: Growth inhibition of human HeLa cells at 20 uM after 69 hrs by MTT assay; type: functional; settings: read-out: GI
HL-60 [6] = experiment: Antiproliferative effect against human HL60 cells after 69 hrs; type: functional, cell-based; settings: HL-60, 69 h
Estrogen receptor = biological target: T1, Estrogen receptor (Homo sapiens, UniProt P03372); experiment: Agonist activity at human ERalpha expressed in african green monkey CV1 cells by luciferase reporter gene assay relative to 17beta estradiol; type: functional, cell-based, CV-1
T1 sequence (P03372 whole entry): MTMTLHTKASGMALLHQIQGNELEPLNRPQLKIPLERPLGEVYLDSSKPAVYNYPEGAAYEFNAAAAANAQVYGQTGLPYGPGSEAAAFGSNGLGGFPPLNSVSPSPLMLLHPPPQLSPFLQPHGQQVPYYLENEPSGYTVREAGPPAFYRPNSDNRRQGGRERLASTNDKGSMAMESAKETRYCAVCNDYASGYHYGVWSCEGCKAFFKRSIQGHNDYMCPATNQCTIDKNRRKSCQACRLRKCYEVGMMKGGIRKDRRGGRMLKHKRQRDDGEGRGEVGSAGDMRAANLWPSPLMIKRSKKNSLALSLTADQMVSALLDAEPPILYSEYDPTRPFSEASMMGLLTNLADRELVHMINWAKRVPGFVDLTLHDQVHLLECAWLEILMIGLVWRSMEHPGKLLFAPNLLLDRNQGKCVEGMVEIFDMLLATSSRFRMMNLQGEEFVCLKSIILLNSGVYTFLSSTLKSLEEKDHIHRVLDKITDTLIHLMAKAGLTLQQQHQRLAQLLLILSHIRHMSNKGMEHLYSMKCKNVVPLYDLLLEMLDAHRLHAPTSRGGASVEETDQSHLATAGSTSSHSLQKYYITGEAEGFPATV

MCF7 [7] = experiment: Promotion of cell proliferation in human MCF7 cells; type: functional, cell-based

C=C1C(=O)OC[C@H]1C(c1cc(OC)c2c(c1)OCO2)c1cc(OC)c2c(c1)OCO2 [PEPEROMIN E]
inhibition of growth at 20 µM (MCF7 [1]): 90.7% | IC50 (HeLa [2]): 11.1 µM | IC50 (MCF7 [3]): 3.9 µM | inhibition of growth at 20 µM (HL-60 [4]): 93% | inhibition of growth at 20 µM (HeLa [5]): 95% | IC50 (HL-60 [6]): 1.8 µM

C=C1C(=O)OCC1C(c1cc(OC)c(OC)c(OC)c1)c1cc(OC)c2c(c1)OCO2 (stereo not given)
inhibition of growth at 20 µM (MCF7 [1]): 91% | IC50 (HeLa [2]): 9.1 µM | IC50 (MCF7 [3]): 3.8 µM | inhibition of growth at 20 µM (HL-60 [4]): 92% | inhibition of growth at 20 µM (HeLa [5]): 96% | IC50 (HL-60 [6]): 1.4 µM

COc1cc([C@@H]2c3cc4c(cc3[C@@H](O[C@@H]3O[C@@H]5CO[C@@H](C)O[C@H]5[C@H](O)[C@H]3O)[C@H]3COC(=O)[C@H]23)OCO4)cc(OC)c1O [ETOPOSIDE]
inhibition of growth at 20 µM (MCF7 [1]): 73.5% | IC50 (HeLa [2]): 3.6 µM | IC50 (MCF7 [3]): 0.19 µM | inhibition of growth at 20 µM (HL-60 [4]): 93.5% | inhibition of growth at 20 µM (HeLa [5]): 85.3% | IC50 (HL-60 [6]): 0.21 µM

COc1cc(OC)c(C2CCC(=O)c3c(OC)cc(OC)c(OC)c32)cc1OC (stereo not given)
inhibition of growth at 20 µM (MCF7 [1]): 37.6% | inhibition of growth at 20 µM (HL-60 [4]): < 5% | inhibition of growth at 20 µM (HeLa [5]): < 5%

COc1cc([C@H]2O[C@@H](c3cc(OC)c4c(c3)OCO4)[C@@H](CO)[C@@H]2COC(C)=O)cc2c1OCO2
EC50 (Estrogen receptor): 3.1 µM | EC50 (MCF7 [7]): 0.142 µM

COc1cc(C(c2cc(OC)c3c(c2)OCO3)[C@@H]2COC(=O)[C@H]2C)cc(O)c1OC (relative stereo)
inhibition of growth at 20 µM (MCF7 [1]): 53.2% | inhibition of growth at 20 µM (HL-60 [4]): 92% | inhibition of growth at 20 µM (HeLa [5]): 10% | IC50 (HL-60 [6]): 10.8 µM

COc1cc(C(c2cc(OC)c3c(c2)OCO3)[C@@H]2COC(=O)[C@H]2C)cc2c1OCO2 [PEPEROMIN A]
inhibition of growth at 20 µM (MCF7 [1]): 27.7% | inhibition of growth at 20 µM (HL-60 [4]): 17% | inhibition of growth at 20 µM (HeLa [5]): < 5%

From ChEMBL document CHEMBL1157251, “Bioactive compounds from Peperomia pellucida” (J Nat Prod, 2006)
